# Measured values from patent US20230279025A1, “KRAS G12D INHIBITORS” (Mirati Therapeutics, Inc., priority 2020, published 2023).
# Key:
# [1] = molecular target: T1, KRas G12D (Homo sapiens (Human), UniProt P01116, G12D); experiment: KRas G12D Surface Plasmon Resonance (SPR) Binding Assay; settings: Biacore T200, immobilized biotinylated KRAS protein, 1:1 binding model
# Protocol: Briefly, 1L of 1.05X HBS-Mg buffer (262.5 mM Bioultra Hepes, pH 7.5, 157.5 mM NaCl, 105 mM MgCl2, 0.525 mM TCEP, 0.0305% Brij-35) was prepared and filter sterilized using a 0.22 μm bottle top filter. Approximately 50 mL of 1.05X HBS-Mg buffer was removed and saved for future dilutions. A 50 mL aliquot of DMSO (Sigma Aldrich DMSO Lot. #SHBK2079) was added and continued to stir for 10 minutes, creating the final 1.0X HBS-Mg buffer (250 mM Bioultra Hepes pH 7.5, 150 mM NaCl, 100 mM MgCl2, 0.5 mM TCEP, 0.03% Brij-35).
# Biacore T200 instrument was primed using 1.0X HBS-Mg buffer before docking a GE Streptavidin (SA) chip and then primed two additional times prior to beginning the immobilization step. All immobilized protein mixtures were created using 3-5 mg/mL Biotinylated Avidin-tagged KRAS protein using the following immobilization settings: SA chip type, 1 flow cells per cycle, 720 second contact time, and 5 ul/min flow rate. Normalization of the detector was also performed during the immobilization step using the GE BiaNormalize solution.
# All compounds were diluted to 10 mM in 100% DMSO prior to being diluted 20X in 1.05X buffer. Another 10X dilution was created using 1.0X buffer prior to performing a series of 3X dilutions to create a compound concentration curve using the following assay settings: 20C analysis temperature, General Settings=10 Hz data collection rate and multi-detection; Assay Steps=all set to LMW kinetics; Cycle Types=LMW kinetics (60 s contact time, 120 s dissociation time, 100 ul/min flow rate, extra wash after injection with 50% DMSO, flow path 1,2,3,4); Flow path detection=2-1, 4-3). Data evaluation was performed using the Biacore T200 Evaluation software and data fit to 1:1 binding model. ND=not determined.
# Target sequence in this assay (P01116-2 other isoform, or with tags, fused parts or gaps G12D): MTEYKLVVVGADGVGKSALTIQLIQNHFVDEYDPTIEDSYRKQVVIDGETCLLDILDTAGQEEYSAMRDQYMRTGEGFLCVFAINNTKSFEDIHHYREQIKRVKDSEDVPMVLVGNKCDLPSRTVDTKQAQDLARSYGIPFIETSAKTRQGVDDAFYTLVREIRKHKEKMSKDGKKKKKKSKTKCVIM
# [2] = molecular target: T1, KRas G12D; experiment: KRas G12D Binding Assay (TR-FRET displacement of Cy5 labelled tracer); settings: GDP-loaded KRAS G12D (amino acids 1:169), 60 minute incubation at 22° C.
# Protocol: After a 60 minute incubation at 22° C., the reaction was measured using a PerkinElmer EnVision multimode plate reader via TR-FRET dual wavelength detection, and the percent of control (POC) calculated using a ratiometric emission factor. […] The POC values were fit to a 4-parameter logistic curve and the IC50 value was determined as the concentration where the curve crosses 50 POC.
# ND stands for “not determined.”
# Target sequence in this assay (P01116 other isoform, or with tags, fused parts or gaps G12D): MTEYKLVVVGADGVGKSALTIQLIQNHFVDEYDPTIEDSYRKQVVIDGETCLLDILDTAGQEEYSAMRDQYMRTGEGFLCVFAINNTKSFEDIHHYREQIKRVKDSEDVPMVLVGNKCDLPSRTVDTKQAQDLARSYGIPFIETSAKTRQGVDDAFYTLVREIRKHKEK
SMILES,Kd [1] [µM],IC50 [2] [µM]
"Oc1cc(-c2ncc3c(N4C[C@H]5CC[C@@H](C4)N5)nc(N4CC5(CCOC5)C4)nc3c2F)c2ccccc2c1 [Example 76, 4-(4-((1R,5S)-3,8-diazabicyclo[3.2.1]octan-3-yl)-8-fluoro-2-(6-oxa-2-azaspiro[3.4]octan-2-yl)pyrido[4,3-d]pyrimidin-7-yl)naphthalen-2-ol]",0.197,0.131
"Oc1cc(-c2ncc3c(N4C[C@H]5CC[C@@H](C4)N5)nc(OCCc4ccccc4F)nc3c2F)c2ccccc2c1 [Example 67, 4-(4-((1R,5S)-3,8-diazabicyclo[3.2.1]octan-3-yl)-8-fluoro-2-(2-fluorophenethoxy)pyrido[4,3-d]pyrimidin-7-yl)naphthalen-2-ol]",1.15,1.25
"CN(C)CCOc1nc(N2C[C@H]3CC[C@@H](C2)N3)c2cnc(-c3cc(O)cc4ccccc34)c(F)c2n1 [Example 18, 4-(4-((1R,5S)-3,8-diazabicyclo[3.2.1]octan-3-yl)-2-(2-(dimethylamino)ethoxy)-8-fluoropyrido[4,3-d]pyrimidin-7-yl)naphthalen-2-ol]",0.0031,0.0768
"COCCN1CCC(Oc2nc(N3C[C@H]4CC[C@@H](C3)N4)c3cnc(-c4cccc5ccccc45)c(F)c3n2)CC1 [Example 39, 4-((1R,5S)-3,8-diazabicyclo[3.2.1]octan-3-yl)-8-fluoro-2-((1-(2-methoxyethyl)piperidin-4-yl)oxy)-7-(naphthalen-1-yl)pyrido[4,3-d]pyrimidine]",67.8,> 10
"Cc1nccn1CCOc1nc(N2CC3CCC(C2)N3)c2cnc(-c3cc(O)cc4ccccc34)c(F)c2n1 [Example 84, 4-(4-((1R,5S)-3,8-diazabicyclo[3.2.1]octan-3-yl)-8-fluoro-2-(2-(2-methyl-1H-imidazol-1-yl)ethoxy)pyrido[4,3-d]pyrimidin-7-yl)naphthalen-2-ol]",0.0144,0.0317
"Cn1cncc1COc1nc(N2C[C@H]3CC[C@@H](C2)N3)c2cnc(-c3cc(O)cc4ccccc34)c(F)c2n1 [Example 95, 4-(4-((1R,5S)-3,8-diazabicyclo[3.2.1]octan-3-yl)-8-fluoro-2-((1-methyl-1H-imidazol-5-yl)methoxy)pyrido[4,3-d]pyrimidin-7-yl)naphthalen-2-ol]",1.13,0.561
"OCC(O)CCOc1nc(N2C[C@H]3CC[C@@H](C2)N3)c2cnc(-c3cccc4cccc(Cl)c34)c(F)c2n1 (stereo partly drawn) [Example 57, 4-((4-((1R,5S)-3,8-diazabicyclo[3.2.1]octan-3-yl)-7-(8-chloronaphthalen-1-yl)-8-fluoropyrido[4,3-d]pyrimidin-2-yl)oxy)butane-1,2-diol]",> 1000,7.29
"Oc1cc(-c2ncc3c(N4C[C@H]5CC[C@@H](C4)N5)nc(OC[C@@H]4CCCN4)nc3c2F)c2ccccc2c1 [Example 50, 4-(4-((1R,5S)-3,8-diazabicyclo[3.2.1]octan-3-yl)-8-fluoro-2-(((S)-pyrrolidin-2-yl)methoxy)pyrido[4,3-d]pyrimidin-7-yl)naphthalen-2-ol]",0.0021,0.0025
"Cc1ccc2[nH]ncc2c1-c1ncc2c(N3C[C@H]4CC[C@@H](C3)N4)nc(OCCc3nccn3C)nc2c1F [Example 88, 4-((1R,5S)-3,8-diazabicyclo[3.2.1]octan-3-yl)-8-fluoro-2-(2-(1-methyl-1H-imidazol-2-yl)ethoxy)-7-(5-methyl-1H-indazol-4-yl)pyrido[4,3-d]pyrimidine]",15.6,7.02
"CN1CCC[C@H]1COc1nc(N2C[C@H]3CC[C@@H](C2)N3)c2cnc(-c3cncc4cccc(Cl)c34)c(F)c2n1 [Example 151, 4-((1R,5S)-3,8-diazabicyclo[3.2.1]octan-3-yl)-7-(5-chloroisoquinolin-4-yl)-8-fluoro-2-(((S)-1-methylpyrrolidin-2-yl)methoxy)pyrido[4,3-d]pyrimidine]",0.448,0.388
